The text below walks through data of US8486965B2, “Pyrrolo[2,3-b]pyridine derivative and use thereof for treatment of cancer” (Takeda Pharmaceutical Company Limited, priority 2009, dated 2013).

SMILES strings stand for the structures.

This experiment concerns Hedgehog signal transduction system (Smo). The experiment is described as follows: Gli reporter luciferase assay in NIH-3T3/Gli reporter cells stimulated with mouse Shh-N end fragment. The experiment is classed as cell-based. Particulars: NIH3T3; 1 μM compound; NIH-3T3/Gli reporter cells with mouse Shh-N end fragment culture supernatant, 48 hr; luciferase activity, control without compound as 100; read-out: inhibition rate (%) at 1 μM. The source says:
Inhibition of the Hedgehog signal transduction system can be measured, for example, by quantifying a decrease in the expression level of a reporter gene connected to the downstream of the Gli binding site based on the fluorescence intensity according to the following Experimental Example 1. Alternatively, it can be measured by quantifying the expression of Gli-1 mRNA in a cell extract by quantitative PCR method and the like. A compound that inhibits Hedgehog signal targets Smo, which can be confirmed, for example, by binding fluorescence-labeled Cyclopamine and a test compound to cells expressing Smo, measuring the fluorescence level of the cell, and comparing the value with that without addition of a test compound to find a decrease.
Gli reporter plasmid was constructed by inserting 8×Gli-binding site and chicken δ-crystalline promoter into the upstream of luc+ of pGL3 (Promega).
prepared in reference to the base sequence described in GenBank accession No.; X02187, and chicken genome DNA (Clontech) as a template. PCR reaction was performed using Pfu Turbo (Stratagene) and following the attached protocol. The obtained 108 bp fragment was digested with restriction enzymes BglII and HindIII, and inserted into BglII-HindIII site of pGL3 to give plasmid pGL3/δ-cry promoter.
As 8× Gli-binding site, a sequence containing eight 9-bp Gli bound consensus sequences (GACCACCCA) described in Yoon et al., J. Biol. Chem., vol. 273, pages 3496-3501 (1998) was prepared from synthetic DNA. That is, two synthetic DNAs,
were heat treated at 95° C. for 2 minutes, and incubated at 37° C. for 1 hr for annealing to give a double stranded DNA of the above-mentioned two synthetic DNAs. The obtained double stranded DNA was digested with restriction enzymes BglII and KpnI, and the obtained DNA fragment was inserted into BglII-KpnI site of pGL3/δ-cry promoter to construct plasmid pGL3/δ-cry promoter, 8× Gli binding site, i.e., Gli reporter plasmid. 2. Construction of Plasmid for Expression of Mouse Shh-N End Fragment
As a material for construction of plasmid for Shh-N end fragment expression, mouse Shh cDNA was cloned at first.
The mouse Shh cDNA was cloned by Nested PCR method using mouse 11-day fetus cDNA (Clontech) as a template. The primer sequence was prepared in reference to the base sequence described in GenBank accession No.; NM_009170.
Using the mouse Shh cDNA sequence obtained as mentioned above as a template, a partial cDNA sequence wherein stop codon (TGA) was added to 3′-terminal of cDNA sequence encoding 1st to 198th amino acid sequence of mouse Shh was obtained by PCR method. As the primer set,
In the manner mentioned above, a plasmid for mouse Shh-N end fragment expression, pcDNA3.1/mShh-N, was constructed.
HEK293 cells were grown in D-MEM medium (Invitrogen) containing 10% fetal bovine serum in a 10 cm dish and pcDNA3.1/mShh-N was introduced into the cells using FuGENE6 (Roche Applied Science). Thereafter, the HEK293 cells were cultured in a carbon dioxide gas incubator at 37° C. for 24 hours, and the medium was exchanged with D-MEM medium (Invitrogen) containing 2% fetal bovine serum. After culturing for 48 hr, culture supernatant containing recombinant type mouse Shh-N end fragment was obtained by filtration using a filter ([…]).
Using D-MEM (Invitrogen) containing 10% fetal bovine serum, expression plasmid pcDNA3:1 and Gli reporter plasmid (pGL3/δ-cry promoter, 8× Gli binding site) produced by the method of Experimental Example 1 were introduced into NIH-3T3 cells grown in a 10 cm dish by the use of FuGENE6 (Roche Applied Science).
After culture for 24 hr, the cells were recovered, suspended in D-MEM medium containing 10% fetal bovine serum and supplemented with Geneticin (Life Technologies Oriental, Inc.) to a final concentration of 500 μg/ml, diluted to 10^4 cells/ml, plated on a 96 well plate, and cultured in a carbon dioxide gas incubator at 37° C. to give Geneticin resistant transformed cell line. […]
For `CCOc1c(C(=O)NC2CCN(C(=O)CO)CC2)n(C)c2nc(CC)c(NC(=O)c3ccccc3)cc12` [Example 45, 3-ethoxy-6-ethyl-N-[1-(hydroxyacetyl)piperidin-4-yl]-1-methyl-5-[(phenylcarbonyl)amino]-1H-pyrrolo[2,3-b]pyridine-2-carboxamide], the inhibition at 1 µM amounted to 98%.
Consider `CCc1nc2c(cc1NC(=O)c1ccoc1)c(OCC(F)(F)F)c(C(=O)NC1CCN(C(=O)CO)CC1)n2C` [Example 54, 6-ethyl-5-[(furan-3-ylcarbonyl)amino]-N-[1-(hydroxyacetyl)piperidin-4-yl]-1-methyl-3-(2,2,2-trifluoroethoxy)-1H-pyrrolo[2,3-b]pyridine-2-carboxamide], for which the inhibition at 1 µM worked out at 99%.
Take `CCc1nc2c(nc1NC(=O)c1ccccc1)c(OC(C)C)c(C(=O)NC1CCN(C(=O)CO)CC1)n2C` [Example 163, 3-ethyl-N-[1-(hydroxyacetyl)piperidin-4-yl]-5-methyl-7-(1-methylethoxy)-2-[(phenylcarbonyl)amino]-5H-pyrrolo[2,3-b]pyrazine-6-carboxamide]: the inhibition at 1 µM came to 98%.
In the case of `CCc1cc2c(nc1-c1ccccc1)c(OC(C)C)c(C(=O)NC1CCN(C(=O)CO)CC1)n2C` [Example 131, 6-ethyl-N-[1-(hydroxyacetyl)piperidin-4-yl]-1-methyl-3-(1-methylethoxy)-5-phenyl-1H-pyrrolo[3,2-b]pyridine-2-carboxamide], the inhibition at 1 µM came to 82%.
The value for `CCOc1c(C(=O)NC2CCN(C(=O)CO)CC2)n(C)c2nc(CC)c(NC(=O)c3ccc(F)cc3)cc12` [Example 39, 3-ethoxy-6-ethyl-5-{[(4-fluorophenyl)carbonyl]amino}-N-[1-(hydroxyacetyl)piperidin-4-yl]-1-methyl-1H-pyrrolo[2,3-b]pyridine-2-carboxamide] was 96%; that for `CCc1nc2c(cc1NC(=O)c1ccccc1F)c(OCC(F)(F)F)c(C(=O)NC1CCN(C(=O)CO)CC1)n2C` [Example 22, 6-ethyl-5-{[(2-fluorophenyl)carbonyl]amino}-N-[1-(hydroxyacetyl)piperidin-4-yl]-1-methyl-3-(2,2,2-trifluoroethoxy)-1H-pyrrolo[2,3-b]pyridine-2-carboxamide] was 93%.
In the case of `CCc1nc2c(cc1NC(=O)c1ccc(F)cc1)c(OC(C)C)c(C(=O)NC1CCN(C(=O)CO)CC1)n2C` [Example 33, 6-ethyl-5-{[(4-fluorophenyl)carbonyl]amino}-N-[1-(hydroxyacetyl)piperidin-4-yl]-1-methyl-3-(1-methylethoxy)-1H-pyrrolo[2,3-b]pyridine-2-carboxamide] it was 95%.
`CCc1cc2c(cc1NC(=O)c1ccc(F)cc1)c(OC(C)C)c(C(=O)NC1CCN(C(=O)CO)CC1)n2C` [Example 168, 6-ethyl-5-{[(4-fluorophenyl)carbonyl]amino}-N-[1-(hydroxyacetyl)piperidin-4-yl]-1-methyl-3-(1-methylethoxy)-1H-indole-2-carboxamide]: the inhibition at 1 µM came to 97%.
Turning to `CCc1nc2c(cc1NC(=O)c1cc(C)nn1C)c(OCC(F)(F)F)c(C(=O)NC1CCN(C(=O)CO)CC1)n2C` [Example 57, 5-{[(1,3-dimethyl-1H-pyrazol-5-yl)carbonyl]amino}-6-ethyl-N-[1-(hydroxyacetyl)piperidin-4-yl]-1-methyl-3-(2,2,2-trifluoroethoxy)-1H-pyrrolo[2,3-b]pyridine-2-carboxamide], the inhibition at 1 µM was found to be 99%.
In the case of `CCc1nc2c(cc1CC(=O)c1ccccc1)c(OCC(F)(F)F)c(C(=O)NC1CCN(C(=O)CO)CC1)n2C` [Example 9, 6-ethyl-N-[1-(hydroxyacetyl)piperidin-4-yl]-1-methyl-5-(2-oxo-2-phenylethyl)-3-(2,2,2-trifluoroethoxy)-1H-pyrrolo[2,3-b]pyridine-2-carboxamide] it was 98%; in that of `CCc1nc2c(nc1-c1ccccc1)c(OCC(F)(F)F)c(C(=O)NC1CCN(C(=O)CO)CC1)n2C` [Example 144, 3-ethyl-N-[1-(hydroxyacetyl)piperidin-4-yl]-5-methyl-2-phenyl-7-(2,2,2-trifluoroethoxy)-5H-pyrrolo[2,3-b]pyrazine-6-carboxamide], 98%; in that of `CCc1nc2c(cc1NC(=O)c1ccccc1)c(OCC(F)(F)F)c(C(=O)NC1CCN(C(=O)CO)CC1)n2C` [Example 7, 6-ethyl-N-[1-(hydroxyacetyl)piperidin-4-yl]-1-methyl-5-[(phenylcarbonyl)amino]-3-(2,2,2-trifluoroethoxy)-1H-pyrrolo[2,3-b]pyridine-2-carboxamide], 96%.
In the case of `CCc1nc2c(cc1NC(=O)c1ccc(F)cc1)c(OCC(F)(F)F)c(C(=O)NC1CCN(C(=O)CO)CC1)n2C` [Example 24, 6-ethyl-5-{[(4-fluorophenyl)carbonyl]amino}-N-[1-(hydroxyacetyl)piperidin-4-yl]-1-methyl-3-(2,2,2-trifluoroethoxy)-1H-pyrrolo[2,3-b]pyridine-2-carboxamide] it was 90%; in that of `CCc1nc2c(cc1NC(=O)c1cccs1)c(OCC(F)(F)F)c(C(=O)NC1CCN(C(=O)CO)CC1)n2C` [Example 29, 6-ethyl-N-[1-(hydroxyacetyl)piperidin-4-yl]-1-methyl-5-[(thiophen-2-ylcarbonyl)amino]-3-(2,2,2-trifluoroethoxy)-1H-pyrrolo[2,3-b]pyridine-2-carboxamide], 95%.
Take `CCc1nc2c(cc1NC(=O)c1ccccc1)c(OC(C)C)c(C(=O)N[C@H]1CC[C@@H](O)CC1)n2C` [Example 173, 6-ethyl-N-(cis-4-hydroxycyclohexyl)-1-methyl-3-(1-methylethoxy)-5-[(phenylcarbonyl)amino]-1H-pyrrolo[2,3-b]pyridine-2-carboxamide]: the inhibition at 1 µM was determined as 98%.
As to `CCc1nc2c(cc1NC(=O)c1cncs1)c(OCC(F)(F)F)c(C(=O)NC1CCN(C(=O)CO)CC1)n2C` [Example 53, 6-ethyl-N-[1-(hydroxyacetyl)piperidin-4-yl]-1-methyl-5-[(1,3-thiazol-5-ylcarbonyl)amino]-3-(2,2,2-trifluoroethoxy)-1H-pyrrolo[2,3-b]pyridine-2-carboxamide], the inhibition at 1 µM came out at 95%.
`Cc1nc2c(cc1NC(=O)c1ccccc1)c(OC(C)C)c(C(=O)NC1CCN(C(=O)CO)CC1)n2C` [Example 155, N-[1-(hydroxyacetyl)piperidin-4-yl]-1,6-dimethyl-3-(1-methylethoxy)-5-[(phenylcarbonyl)amino]-1H-pyrrolo[2,3-b]pyridine-2-carboxamide]: the inhibition at 1 µM turned out to be 99%.
With `Cc1nc2c(cc1NC(=O)c1ccccc1)c(OCC(F)(F)F)c(C(=O)NC1CCN(C(=O)CO)CC1)n2C` [Example 47, N-[1-(hydroxyacetyl)piperidin-4-yl]-1,6-dimethyl-5-[(phenylcarbonyl)amino]-3-(2,2,2-trifluoroethoxy)-1H-pyrrolo[2,3-b]pyridine-2-carboxamide], the inhibition at 1 µM is 97%.
For `CCc1nc2c(cc1NC(=O)c1nccs1)c(OCC(F)(F)F)c(C(=O)NC1CCN(C(=O)CO)CC1)n2C` [Example 69, 6-ethyl-N-[1-(hydroxyacetyl)piperidin-4-yl]-1-methyl-5-[(1,3-thiazol-2-ylcarbonyl)amino]-3-(2,2,2-trifluoroethoxy)-1H-pyrrolo[2,3-b]pyridine-2-carboxamide], the inhibition at 1 µM amounted to 99%.
